Test results reported in patent publication US9169260B2 (MERCK SHARP & DOHME CORP., priority 2011, dated 2015).
Like-named read-outs stand apart in the source and are kept apart here.

Target: GST tagged IRAK-4 (Homo sapiens (Human), UniProt Q9NWZ3)
Experiment: IRAK-4 Kinase Assay (IMAP fluorescence polarization)
Type: biochemical
In short: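 Activity was read by IMAP fluorescence polarization, where phosphopeptide binding to M(III) nanoparticles raises FP. The 30-minute, 25° C reaction used 100 μM ATP, 100 nM RP7030 substrate and 0.5 nM GST-IRAK-4 in pH 7.2 Tris buffer with MgCl2, DTT and Tween 20.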

[1] = 100 μM ATP, 30 minutes at 25° C., μM
[2] = 100 μM ATP, 30 minutes at 25° C.

Sequence of GST tagged IRAK-4 (Q9NWZ3 whole entry): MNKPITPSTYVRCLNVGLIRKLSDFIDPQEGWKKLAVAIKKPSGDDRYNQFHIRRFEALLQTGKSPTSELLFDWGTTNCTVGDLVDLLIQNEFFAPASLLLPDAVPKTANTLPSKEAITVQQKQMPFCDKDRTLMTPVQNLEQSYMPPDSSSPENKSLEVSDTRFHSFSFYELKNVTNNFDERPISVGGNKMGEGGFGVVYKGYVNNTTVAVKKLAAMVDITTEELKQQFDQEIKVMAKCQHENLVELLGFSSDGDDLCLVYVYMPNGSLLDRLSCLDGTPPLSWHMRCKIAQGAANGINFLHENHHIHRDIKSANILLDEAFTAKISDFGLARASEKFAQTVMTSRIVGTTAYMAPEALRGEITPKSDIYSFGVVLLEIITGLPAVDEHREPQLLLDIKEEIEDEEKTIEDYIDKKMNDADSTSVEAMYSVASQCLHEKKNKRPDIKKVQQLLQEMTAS

Compound	IC50 [1] [µM]	IC50 [2] [µM]	further results
Cc1ccc(-n2nc(-c3cncnc3)cc2NC(=O)c2cnn3cccnc23)cc1 [Example 137, N-(3-(pyrimidin-5-yl)-1-(p-tolyl)-1H-pyrazol-5-yl)pyrazolo[1,5-a]pyrimidine-3-carboxamide]	> 1		
N-(3-(1-methylpiperidin-4-yl)-1-(5-methylpyridin-2-yl)-1H-pyrazol-5-yl)pyrazolo[1,5-a]pyrimidine-3-carboxamide [Example 399]			IC50: < 0.1 µM
Cc1ccc(-n2nc(C3CCN(C(C)C)CC3)cc2NC(=O)c2cnn3cccnc23)c(F)c1 [Example 58, N-(1-(2-fluoro-4-methylphenyl)-3-(1-isopropylpiperidin-4-yl)-1H-pyrazol-5-yl)pyrazolo[1,5-a]pyrimidine-3-carboxamide]		< 0.1	
Cc1ccc(-n2nc(C3CCN(C4CCOCC4)CC3)cc2NC(=O)c2cnn3cccnc23)cc1 [Example 206]		< 0.1	
CNC(=O)c1cccc(-c2cc(NC(=O)c3cnn4cccnc34)n(-c3ccc(C)cc3)n2)c1 [Example 350, N-{3-[3-(methylcarbamoyl)phenyl]-1-(4-methylphenyl)-1H-pyrazol-5-yl}pyrazolo[1,5-a]pyrimidine-3-carboxamide]	< 1		
Cc1ccc(-n2nc(C3CCN(C4CCCCC4)CC3)cc2NC(=O)c2cnn3cccnc23)cc1 [Example 204, N-[3-(1-cyclohexylpiperidin-4-yl)-1-(4-methylphenyl)-1H-pyrazol-5-yl]pyrazolo[1,5-a]pyrimidine-3-carboxamide]		< 0.1	
Cc1ccc(-n2nc(C3CCN(C4CN(C(=O)OC(C)C)C4)CC3)cc2NC(=O)c2cnn3cccnc23)cc1 [Example 240, 1-methylethyl 3-(4-{1-(4-methylphenyl)-5-[(pyrazolo[1,5-a]pyrimidin-3-ylcarbonyl)amino]-1H-pyrazol-3-yl}piperidin-1-yl)azetidine-1-carboxylate]	< 1		
Cc1ccc(-n2nc(C3CCN(C(C)C)CC3)cc2NC(=O)c2cnn3cccnc23)c(Cl)c1 [Example 66, N-(1-(2-chloro-4-methylphenyl)-3-(1-isopropylpiperidin-4-yl)-1H-pyrazol-5-yl)pyrazolo[1,5-a]pyrimidine-3-carboxamide]	< 1		
Cc1ccc(-n2nc(C3CN(S(=O)(=O)C4CC4)C3)cc2NC(=O)c2cnn3cccnc23)cc1 [Example 84, N-(3-(1-(cyclopropylsulfonyl)azetidin-3-yl)-1-(p-tolyl)-1H-pyrazol-5-yl)pyrazolo[1,5-a]pyrimidine-3-carboxamide]	< 1		
COc1ccc(-n2nc(-c3ccncc3)cc2NC(=O)c2cnn3cccnc23)cc1 [Example 127, N-(1-(4-methoxyphenyl)-3-(pyridin-4-yl)-1H-pyrazol-5-yl)pyrazolo[1,5-a]pyrimidine-3-carboxamide]	< 1		
Cc1ccc(-n2nc(C3CCN(C4CCC(N(C)S(C)(=O)=O)CC4)CC3)cc2NC(=O)c2cnn3cccnc23)nc1 (stereo not drawn) [Example 262, N-[3-(1-{4-[methyl(methylsulfonyl)amino]cyclohexyl}piperidin-4-yl)-1-(5-methylpyridin-2-yl)-1H-pyrazol-5-yl]pyrazolo[1,5-a]pyrimidine-3-carboxamide]		< 0.1	
Cc1ccc(-n2nc(C3CCN(Cc4nccs4)CC3)cc2NC(=O)c2cnn3cccnc23)cc1 [Example 222, N-{1-(4-methylphenyl)-3-[1-(1,3-thiazol-2-ylmethyl)piperidin-4-yl]-1H-pyrazol-5-yl}pyrazolo[1,5-a]pyrimidine-3-carboxamide]	< 1		
Cc1ccc(-n2nc(C3CCN(S(C)(=O)=O)CC3)cc2NC(=O)c2cnn3cccnc23)cc1 [Example 18, N-(3-(1-(methylsulfonyl)piperidin-4-yl)-1-(p-tolyl)-1H-pyrazol-5-yl)pyrazolo[1,5-a]pyrimidine-3-carboxamide]		< 0.1	
COc1cc(NC(=O)c2cnn3cccnc23)n(-c2ccc(C)cn2)n1 [Example 182, N-(3-methoxy-1-(5-methylpyridin-2-yl)-1H-pyrazol-5-yl)pyrazolo[1,5-a]pyrimidine-3-carboxamide]	< 1		
Cc1ccc(-n2nc(C3CCN(Cc4cccnc4)CC3)cc2NC(=O)c2cnn3cccnc23)cc1 [Example 225, N-{1-(4-methylphenyl)-3-[1-(pyridin-3-ylmethyl)piperidin-4-yl]-1H-pyrazol-5-yl}pyrazolo[1,5-a]pyrimidine-3-carboxamide]	< 1		
CCOC(=O)N1CC(N2CCC(c3cc(NC(=O)c4cnn5cccnc45)n(-c4ccc(C)cc4)n3)CC2)C1 [Example 239, ethyl 3-(4-{1-(4-methylphenyl)-5-[(pyrazolo[1,5-a]pyrimidin-3-ylcarbonyl)amino]-1H-pyrazol-3-yl}piperidin-1-yl)azetidine-1-carboxylate]	< 1		
Cc1ccc(-n2nc(C3CCN(S(=O)(=O)c4cccc(F)c4)CC3)cc2NC(=O)c2cnn3cccnc23)cc1 [Example 379, N-[3-{1-[(3-fluorophenyl)sulfonyl]piperidin-4-yl}-1-(4-methylphenyl)-1H-pyrazol-5-yl]pyrazolo[1,5-a]pyrimidine-3-carboxamide]	< 1		
CN1CCC(c2cc(NC(=O)c3cnn4cccnc34)n(-c3ccc(Cl)cc3F)n2)CC1 [Example 50, N-(1-(4-chloro-2-fluorophenyl)-3-(1-methylpiperidin-4-yl)-1H-pyrazol-5-yl)pyrazolo[1,5-a]pyrimidine-3-carboxamide]	< 1		
Cc1ccc(-n2nc(C3CCNC(=O)CC3)cc2NC(=O)c2cnn3cccnc23)cc1 (stereo not drawn) [Example 4, N-(3-(7-oxoazepan-4-yl)-1-(p-tolyl)-1H-pyrazol-5-yl)pyrazolo[1,5-a]pyrimidine-3-carboxamide]	< 1		
COc1ccc(-n2nc(C3CCNCC3)cc2NC(=O)c2cnn3cccnc23)c(F)c1 [Example 61, N-(1-(2-fluoro-4-methoxyphenyl)-3-(piperidin-4-yl)-1H-pyrazol-5-yl)pyrazolo[1,5-a]pyrimidine-3-carboxamide]		< 0.1	

Further lines, with some results ahead:

IC50 [1] [µM]	IC50 [2] [µM]	Compound	further results
	< 0.1	Cc1ccc(-n2nc(C3CCN(C4CCN(C5CC5)CC4)CC3)cc2NC(=O)c2cnn3cccnc23)nc1 [Example 267, N-[3-(1′-cyclopropyl-1,4′-bipiperidin-4-yl)-1-(5-methylpyridin-2-yl)-1H-pyrazol-5-yl]pyrazolo[1,5-a]pyrimidine-3-carboxamide]	
	< 0.1	Cc1ccc(-n2nc(C3CCN(C4CCc5ccncc5C4)CC3)cc2NC(=O)c2cnn3cccnc23)nc1 (stereo not drawn) [Example 268, N-{1-(5-methylpyridin-2-yl)-3-[1-(5,6,7,8-tetrahydroisoquinolin-7-yl)piperidin-4-yl]-1H-pyrazol-5-yl}pyrazolo[1,5-a]pyrimidine-3-carboxamide]	
< 1		Cc1ccc(-n2nc(C3CCC(=NO)CC3)cc2NC(=O)c2cnn3cccnc23)cc1 (stereo not drawn) [Example 2, N-(3-(4-(hydroxyimino)cyclohexyl)-1-(p-tolyl)-1H-pyrazol-5-yl)pyrazolo[1,5-a]pyrimidine-3-carboxamide]	
	< 0.1	Cc1ccc(-n2nc(C3CCN(S(=O)(=O)C(C)C)CC3)cc2NC(=O)c2cnn3cccnc23)cc1 [Example 368, N-[3-{1-[(1-methylethyl)sulfonyl]piperidin-4-yl}-1-(4-methylphenyl)-1H-pyrazol-5-yl]pyrazolo[1,5-a]pyrimidine-3-carboxamide]	
	< 0.1	Cc1ccc(-n2nc(C3CCN(C4CC[C@@H](C)C4)CC3)cc2NC(=O)c2cnn3cccnc23)nc1 (stereo partly drawn) [Example 273, N-[3-{1-[(3R)-3-methylcyclopentyl]piperidin-4-yl}-1-(5-methylpyridin-2-yl)-1H-pyrazol-5-yl]pyrazolo[1,5-a]pyrimidine-3-carboxamide]	
< 1		COc1ccc(-n2nc(C3CCN(C(=O)C4CC4)CC3)cc2NC(=O)c2cnn3cccnc23)cc1 [Example 33, N-(3-(1-(cyclopropanecarbonyl)piperidin-4-yl)-1-(4-methoxyphenyl)-1H-pyrazol-5-yl)pyrazolo[1,5-a]pyrimidine-3-carboxamide]	
	< 0.1	O=C(Nc1cc(C2CCN(C3CCC3)CC2)nn1-c1ccc(C2CC2)cc1F)c1cnn2cccnc12 [Example 75, N-(3-(1-cyclobutylpiperidin-4-yl)-1-(4-cyclopropyl-2-fluorophenyl)-1H-pyrazol-5-yl)pyrazolo[1,5-a]pyrimidine-3-carboxamide]	
> 1		COc1cccc(S(=O)(=O)N2CCC(c3cc(NC(=O)c4cnn5cccnc45)n(-c4ccc(C)cc4)n3)CC2)c1 [Example 385, N-[3-{1-[(3-methoxyphenyl)sulfonyl]piperidin-4-yl}-1-(4-methylphenyl)-1H-pyrazol-5-yl]pyrazolo[1,5-a]pyrimidine-3-carboxamide]	
> 1		COC(=O)C1CCC(c2cc(NC(=O)c3cnn4cccnc34)n(-c3ccc(C)cc3)n2)CC1 (stereo not drawn) [Example 93, methyl 4-(5-(pyrazolo[1,5-a]pyrimidine-3-carboxamido)-1-(p-tolyl)-1H-pyrazol-3-yl)cyclohexanecarboxylate]	
< 1		Cc1ccc(-n2nc(C3CCN(C(C)c4nccs4)CC3)cc2NC(=O)c2cnn3cccnc23)cc1 (stereo not drawn) [Example 217, N-[1-(4-methylphenyl)-3-{1-[1-(1,3-thiazol-2-yl)ethyl]piperidin-4-yl}-1H-pyrazol-5-yl]pyrazolo[1,5-a]pyrimidine-3-carboxamide]	
	< 0.1	COc1ncccc1CN1CC(c2cc(NC(=O)c3cnn4cccnc34)n(-c3ccc(C)cc3)n2)C1 [Example 313, N-[3-{1-[(2-methoxypyridin-3-yl)methyl]azetidin-3-yl}-1-(4-methylphenyl)-1H-pyrazol-5-yl]pyrazolo[1,5-a]pyrimidine-3-carboxamide]	
	< 0.1	Cc1ccc(-n2nc(C3CCNCC3)cc2NC(=O)c2cnn3cccnc23)cc1 [Example 7, N-(3-(piperidin-4-yl)-1-(p-tolyl)-1H-pyrazol-5-yl)pyrazolo[1,5-a]pyrimidine-3-carboxamide]	
	< 0.1	Cc1ccc(-n2nc(-c3ccc(S(=O)(=O)N(C)C)cc3)cc2NC(=O)c2cnn3cccnc23)cc1 [Example 353, N-{3-[4-(dimethylsulfamoyl)phenyl]-1-(4-methylphenyl)-1H-pyrazol-5-yl}pyrazolo[1,5-a]pyrimidine-3-carboxamide]	
